Values of other authors as cited in patent US8633323B2, “Process for preparing bis(thiohydrazide amides)” (Synta Pharmaceuticals Corp., priority 2008, dated 2014).

Experiments:
[1] = background statement: effective administration has been challenging
[2] = tested on: stage 1V metastatic melanoma; details: in combination with Taxol, in relation to patients treated with Taxol alone; patients suffering from stage 1V metastatic melanoma

solubility [1]: low solubility
Compound: CN(NC(=O)CC(=O)NN(C)C(=S)c1ccccc1)C(=S)c1ccccc1 [N-malonyl-bis(N′-methyl-N′-thiobenzoylhydrazide)]
time to progress [2]: increase the time to progress
